Assays:
Assay in all cases: biochemical
Format in all cases: biochemical
382 unique human kinases [1] = target: T1, 382 unique human kinases (Homo sapiens, UniProt P52564); settings: MKK6, 10 uM; for remaining activity at 10 µM: read-out: % Enzyme Activity (relative to DMSO controls)
T1 construct: purchased Reaction Biology (HotSpot contract assay)
T1 sequence (P52564 1-334): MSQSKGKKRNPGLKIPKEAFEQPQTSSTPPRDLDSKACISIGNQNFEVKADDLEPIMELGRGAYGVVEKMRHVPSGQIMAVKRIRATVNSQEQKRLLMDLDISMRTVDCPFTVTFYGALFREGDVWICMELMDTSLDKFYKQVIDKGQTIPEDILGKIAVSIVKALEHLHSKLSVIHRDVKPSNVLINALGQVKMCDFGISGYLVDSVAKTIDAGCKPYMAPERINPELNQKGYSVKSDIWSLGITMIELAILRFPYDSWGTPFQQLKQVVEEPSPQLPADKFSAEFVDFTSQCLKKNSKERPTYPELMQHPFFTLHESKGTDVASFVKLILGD

382 unique human kinases [2] = target: T2, 382 unique human kinases (Homo sapiens, UniProt Q8IVH8); settings: kinase GLK/MAP4K3, compound 10 uM; for remaining activity at 10 µM: read-out: % Enzyme Activity (relative to DMSO controls)
T2 construct: purchased Reaction Biology (HotSpot contract assay)
T2 sequence (Q8IVH8 1-894): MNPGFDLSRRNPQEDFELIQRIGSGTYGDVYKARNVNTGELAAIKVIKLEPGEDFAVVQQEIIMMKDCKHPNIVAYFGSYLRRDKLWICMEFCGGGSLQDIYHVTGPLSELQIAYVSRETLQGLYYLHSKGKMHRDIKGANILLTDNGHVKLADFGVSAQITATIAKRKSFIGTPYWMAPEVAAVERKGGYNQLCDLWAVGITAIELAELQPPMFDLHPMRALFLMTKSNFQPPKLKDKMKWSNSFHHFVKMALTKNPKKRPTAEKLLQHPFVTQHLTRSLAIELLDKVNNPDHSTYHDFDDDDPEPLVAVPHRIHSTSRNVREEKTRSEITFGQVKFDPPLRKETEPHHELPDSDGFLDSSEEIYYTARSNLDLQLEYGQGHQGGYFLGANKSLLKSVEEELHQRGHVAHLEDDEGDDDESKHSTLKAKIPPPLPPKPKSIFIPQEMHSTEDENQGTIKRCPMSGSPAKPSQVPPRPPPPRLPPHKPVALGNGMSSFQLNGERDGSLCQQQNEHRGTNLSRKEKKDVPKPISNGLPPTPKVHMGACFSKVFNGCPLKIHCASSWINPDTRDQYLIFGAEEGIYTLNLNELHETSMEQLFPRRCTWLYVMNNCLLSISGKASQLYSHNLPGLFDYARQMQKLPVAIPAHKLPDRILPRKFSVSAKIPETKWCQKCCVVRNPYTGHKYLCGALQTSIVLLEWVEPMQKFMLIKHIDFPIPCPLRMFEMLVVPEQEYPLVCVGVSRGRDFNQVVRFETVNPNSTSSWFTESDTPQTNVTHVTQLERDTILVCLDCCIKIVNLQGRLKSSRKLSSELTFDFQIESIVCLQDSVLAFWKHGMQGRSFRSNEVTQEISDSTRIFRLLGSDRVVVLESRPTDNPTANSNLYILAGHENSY

382 unique human kinases [3] = target: T3, 382 unique human kinases (Homo sapiens, UniProt Q96RR4); settings: kinase CAMKK2, compound 10 uM; for remaining activity at 10 µM: read-out: % Enzyme Activity (relative to DMSO controls)
T3 construct: purchased Reaction Biology (HotSpot contract assay)
T3 sequence (Q96RR4 whole entry): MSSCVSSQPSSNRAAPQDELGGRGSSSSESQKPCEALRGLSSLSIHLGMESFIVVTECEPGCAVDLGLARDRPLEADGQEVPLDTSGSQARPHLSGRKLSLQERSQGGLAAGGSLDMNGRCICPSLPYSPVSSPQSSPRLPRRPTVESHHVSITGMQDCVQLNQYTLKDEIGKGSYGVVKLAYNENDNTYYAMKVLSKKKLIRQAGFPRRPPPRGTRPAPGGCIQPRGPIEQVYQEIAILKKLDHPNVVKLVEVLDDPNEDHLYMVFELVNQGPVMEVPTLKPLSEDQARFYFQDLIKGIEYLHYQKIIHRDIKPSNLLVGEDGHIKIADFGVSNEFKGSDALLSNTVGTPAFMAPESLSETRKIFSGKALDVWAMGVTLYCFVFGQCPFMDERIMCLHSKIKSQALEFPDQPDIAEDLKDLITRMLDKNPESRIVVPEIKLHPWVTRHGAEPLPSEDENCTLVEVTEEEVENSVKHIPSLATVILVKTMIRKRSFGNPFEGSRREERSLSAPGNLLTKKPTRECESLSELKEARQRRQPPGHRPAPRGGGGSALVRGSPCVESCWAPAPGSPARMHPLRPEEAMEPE

382 unique human kinases [4] = target: T4, 382 unique human kinases (Homo sapiens, UniProt Q9UF33); settings: kinase EPHA6, compound 10 uM; for remaining activity at 10 µM: read-out: % Enzyme Activity (relative to DMSO controls)
T4 construct: purchased Reaction Biology (HotSpot contract assay)
T4 sequence (Q9UF33 23-1036): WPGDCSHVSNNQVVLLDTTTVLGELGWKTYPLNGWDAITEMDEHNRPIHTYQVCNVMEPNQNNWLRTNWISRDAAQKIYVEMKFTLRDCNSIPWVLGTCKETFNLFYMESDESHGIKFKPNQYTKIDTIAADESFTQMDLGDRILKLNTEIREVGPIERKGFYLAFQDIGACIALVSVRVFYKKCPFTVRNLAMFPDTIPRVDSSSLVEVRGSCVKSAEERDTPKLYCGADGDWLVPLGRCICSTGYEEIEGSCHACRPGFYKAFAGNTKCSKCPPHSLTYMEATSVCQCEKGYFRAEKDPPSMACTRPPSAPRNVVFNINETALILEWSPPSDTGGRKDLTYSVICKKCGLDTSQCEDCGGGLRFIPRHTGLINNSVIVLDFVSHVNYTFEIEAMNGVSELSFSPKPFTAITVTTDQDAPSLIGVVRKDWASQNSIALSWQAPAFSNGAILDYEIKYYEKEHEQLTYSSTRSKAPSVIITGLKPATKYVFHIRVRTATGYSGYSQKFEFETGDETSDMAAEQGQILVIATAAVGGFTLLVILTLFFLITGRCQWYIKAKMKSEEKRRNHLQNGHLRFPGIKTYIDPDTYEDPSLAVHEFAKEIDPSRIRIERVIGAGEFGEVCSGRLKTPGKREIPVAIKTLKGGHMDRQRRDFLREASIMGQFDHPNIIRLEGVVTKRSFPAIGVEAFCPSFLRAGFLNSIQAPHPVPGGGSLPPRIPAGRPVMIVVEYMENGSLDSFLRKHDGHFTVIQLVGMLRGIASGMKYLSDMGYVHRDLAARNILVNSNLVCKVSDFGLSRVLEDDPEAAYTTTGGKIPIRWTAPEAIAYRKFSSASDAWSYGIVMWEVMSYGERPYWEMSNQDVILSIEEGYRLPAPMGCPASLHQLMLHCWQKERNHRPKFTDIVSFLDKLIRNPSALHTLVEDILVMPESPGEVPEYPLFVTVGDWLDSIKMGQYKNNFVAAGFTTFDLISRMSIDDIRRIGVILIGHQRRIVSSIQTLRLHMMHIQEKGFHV

382 unique human kinases [5] = target: T5, 382 unique human kinases (Homo sapiens, UniProt P08581, Y1230C); settings: c-MET (Y1230C), 10 uM; for remaining activity at 10 µM: read-out: % Enzyme Activity (relative to DMSO controls)
T5 construct: purchased Reaction Biology (HotSpot contract assay)

382 unique human kinases [6] = target: T6, 382 unique human kinases (Homo sapiens, UniProt Q9H4B4); settings: PLK3, [ATP] 100 µM, compound 10 uM; for remaining activity at 10 µM: read-out: % Enzyme Activity (relative to DMSO controls)
T6 construct: purchased Reaction Biology (HotSpot contract assay)
T6 sequence (Q9H4B4 whole entry): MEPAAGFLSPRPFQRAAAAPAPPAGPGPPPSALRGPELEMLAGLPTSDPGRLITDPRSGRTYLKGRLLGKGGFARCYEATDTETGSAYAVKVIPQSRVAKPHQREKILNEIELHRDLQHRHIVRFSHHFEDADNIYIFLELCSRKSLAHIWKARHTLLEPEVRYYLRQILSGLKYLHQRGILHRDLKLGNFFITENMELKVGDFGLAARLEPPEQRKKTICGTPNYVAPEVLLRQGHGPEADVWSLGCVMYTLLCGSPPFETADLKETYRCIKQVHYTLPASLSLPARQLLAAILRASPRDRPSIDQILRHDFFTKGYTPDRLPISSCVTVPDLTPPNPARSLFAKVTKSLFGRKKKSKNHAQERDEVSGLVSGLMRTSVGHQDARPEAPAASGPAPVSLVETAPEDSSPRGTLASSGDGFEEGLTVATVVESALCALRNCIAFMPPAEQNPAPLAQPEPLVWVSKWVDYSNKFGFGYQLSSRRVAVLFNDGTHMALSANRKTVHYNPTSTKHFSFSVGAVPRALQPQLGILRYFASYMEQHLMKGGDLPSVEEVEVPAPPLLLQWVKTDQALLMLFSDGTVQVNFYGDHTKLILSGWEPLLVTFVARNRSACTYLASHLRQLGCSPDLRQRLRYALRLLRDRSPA

Structure (SMILES)	remaining activity at 10 µM (382 unique human kinases [1])	remaining activity at 10 µM (382 unique human kinases [2])	remaining activity at 10 µM (382 unique human kinases [3])	remaining activity at 10 µM (382 unique human kinases [4])	remaining activity at 10 µM (382 unique human kinases [5])	remaining activity at 10 µM (382 unique human kinases [6])	% Enzyme Activity (relative to DMSO controls) (382 unique human kinases [1])	% Enzyme Activity (relative to DMSO controls) (382 unique human kinases [2])	% Enzyme Activity (relative to DMSO controls) (382 unique human kinases [3])	% Enzyme Activity (relative to DMSO controls) (382 unique human kinases [4])	% Enzyme Activity (relative to DMSO controls) (382 unique human kinases [5])	% Enzyme Activity (relative to DMSO controls) (382 unique human kinases [6])
CC(C)c1cc(-c2n[nH]c(=O)n2-c2ccc3c(ccn3C)c2)c(O)cc1O [Ganetespib (STA9090)]	72.9%	89.8%	89.7%	91%	–	–	–	–	–	–	–	–
CC(C)c1cc(-c2n[nH]c(=O)n2-c2ccc3c(ccn3C)c2)c(O)cc1O [Ganetespib]	–	–	–	–	97%	39.6%	–	–	–	–	–	–
CCNC(=O)c1noc(-c2cc(C(C)C)c(O)cc2O)c1-c1ccc(CN2CCOCC2)cc1 [Luminespib (AUY-922)]	100%	87.1%	110%	92%	–	–	98.81%	86.46%	109.01%	91.89%	–	–
CCNC(=O)c1noc(-c2cc(C(C)C)c(O)cc2O)c1-c1ccc(CN2CCOCC2)cc1 [Luminespib]	–	–	–	–	103%	99.4%	–	–	–	–	102.31%	99.40%

— article PMC8550792, “Evolution of kinase polypharmacology across HSP90 drug discovery” (Cell Chemical Biology, 2021)
